Reference: ChEMBL document CHEMBL5154661, “Novel 2-phenyl-3-(Pyridin-2-yl) thiazolidin-4-one derivatives as potent inhibitors for proliferation of osteosarcoma cells in vitro and in vivo” (Eur J Med Chem, 2022)
In brackets after ≈: the same amount, converted by molar mass.

Tests used:
[1] = test system: HOS-TE85; assay: Antiproliferative activity against human MNNG/HOS cells assessed as cell growth inhibition measured after 72 hrs by CCK-8 assay; type: functional, cell-based; details: HOS-TE85, 72 h
[2] = test system: MG-63; assay: Antiproliferative activity against human MG-63 cells assessed as cell growth inhibition at 1 uM measured after 72 hrs by CCK-8 assay relative to control; type: functional
[3] = test system: 143B; assay: Antiproliferative activity against human 143B cells assessed as cell growth inhibition at 1 uM measured after 72 hrs by CCK-8 assay relative to control; type: functional
[4] = test system: U2OS; assay: Antiproliferative activity against human U2OS cells assessed as cell growth inhibition at 1 uM measured after 72 hrs by CCK-8 assay relative to control; type: functional
[5] = test system: HOS; assay: Antiproliferative activity against human HOS cells assessed as cell growth inhibition at 1 uM measured after 72 hrs by CCK-8 assay relative to control; type: functional
[6] = test system: HOS-TE85; assay: Antiproliferative activity against human MNNG/HOS cells assessed as cell growth inhibition at 1 uM measured after 72 hrs by CCK-8 assay relative to control; type: functional
[7] = test system: SJSA-1; assay: Antiproliferative activity against human SJSA-1 assessed as cell growth inhibition at 1 uM measured after 72 hrs by CCK-8 assay relative to control; type: functional
[8] = Microsomal stability in human liver microsomes assessed as intrinsic clearance at 0.1 uM incubated for 10 mins in presence of NADPH by LC-MS/MS analysis; type: ADME, Microsome
[9] = Kinetic solubility of compound at pH 6.8 by turbidimetry method; type: physicochemical; details: buffer, read-out: Kinetic_solubility
[10] = Microsomal stability in mouse liver microsomes assessed as intrinsic clearance at 0.1 uM incubated for 10 mins in presence of NADPH by LC-MS/MS analysis; type: ADME, Microsome
[11] = Microsomal stability in rat liver microsomes assessed as intrinsic clearance at 0.1 uM incubated for 10 mins in presence of NADPH by LC-MS/MS analysis; type: ADME, Microsome
[12] = Kinetic solubility of compound at pH 7.4 by turbidimetry method; type: physicochemical; details: buffer, read-out: Kinetic_solubility

## Cc1ccnc(N2C(=O)CS[C@H]2c2cccc(C(=O)NCCCCn3cccn3)c2)c1
[1]
  IC50: > 10000 nM

## O=C(NCCCCc1ccccc1)c1cccc(C2OCC(=O)N2c2cccc(F)c2)c1 (stereo unspecified)
[1]
  IC50: 320 nM
[2]
  inhibition at 1 µM: 66%
[3]
  inhibition at 1 µM: 0%
[4]
  inhibition at 1 µM: 25%
[5]
  inhibition at 1 µM: 29%
[6]
  inhibition at 1 µM: 87%
[7]
  inhibition at 1 µM: 32%

## O=C(NCCCCn1cccn1)c1cccc(C2SCC(=O)N2c2cccc(C3CC3)c2)c1 (stereo unspecified)
[1]
  IC50: 298 nM

## CCN1C(=O)CSC1c1cccc(C(=O)NCCCCc2ccccc2)c1 (stereo unspecified)
[1]
  IC50: > 1000 nM
[2]
  inhibition at 1 µM: 0%
[3]
  inhibition at 1 µM: 40%
[4]
  inhibition at 1 µM: 13%
[5]
  inhibition at 1 µM: 6%
[6]
  inhibition at 1 µM: 0%
[7]
  inhibition at 1 µM: 3%

## COc1ccc(C)cc1N1C(=O)CSC1c1cccc(C(=O)NCCCCc2ccccc2)c1 (stereo unspecified)
[1]
  IC50: 300 nM
[2]
  inhibition at 1 µM: 92%
[3]
  inhibition at 1 µM: 29%
[4]
  inhibition at 1 µM: 30%
[5]
  inhibition at 1 µM: 42%
[6]
  inhibition at 1 µM: 95%
[7]
  inhibition at 1 µM: 79%

## CCOC(=O)c1sc(N2C(=O)CSC2c2cccc(C(=O)NCCCCn3cccn3)c2)nc1C (stereo unspecified)
[1]
  IC50: 430 nM

## O=C(NCCCCc1ccccc1)c1cccc(C2SCC(=O)N2c2cccc(-c3c[nH]nn3)c2)c1 (stereo unspecified)
[8]
  intrinsic clearance (CLint): 261 mL/min/g
[9]
  solubility kinetic: 20 µM (≈ 9.95 µg/mL)
[1]
  IC50: 110 nM
[10]
  intrinsic clearance (CLint): 951 mL/min/g
[11]
  intrinsic clearance (CLint): 742 mL/min/g
[12]
  solubility kinetic: 20 µM (≈ 9.95 µg/mL)

## CCN(CC)c1ccc(N2C(=O)CSC2c2cccc(C(=O)NCCCCc3ccccc3)c2)cc1 (stereo unspecified)
[1]
  IC50: > 1000 nM

## CC(C)(C)c1conc1N1C(=O)CSC1c1cccc(C(=O)NCCCCc2ccccc2)c1 (stereo unspecified)
[1]
  IC50: > 1000 nM

## O=C(NCCCCc1ccccc1)c1cccc(C2SCC(=O)N2c2ccc(C3CC3)cc2)c1 (stereo unspecified)
[8]
  intrinsic clearance (CLint): 811 mL/min/g
[9]
  solubility kinetic: 2 µM (≈ 0.941 µg/mL)
[1]
  IC50: 217 nM
[10]
  intrinsic clearance (CLint): 2962 mL/min/g
[11]
  intrinsic clearance (CLint): 2275 mL/min/g
[12]
  solubility kinetic: 2 µM (≈ 0.941 µg/mL)

## O=C(NCCCCn1cccn1)c1cccc(C2SCC(=O)N2c2cc(Br)ccn2)c1 (stereo unspecified)
[1]
  IC50: 105 nM

## COc1ccccc1N1C(=O)CSC1c1cccc(C(=O)NCCCCc2ccc(Cl)cc2)c1 (stereo unspecified)
[1]
  IC50: 78.6 nM

## O=C(NCCCCn1cccn1)c1cccc(C2SCC(=O)N2c2cccnc2)c1 (stereo unspecified)
[1]
  IC50: > 1000 nM

## COc1ccccc1N1C(=O)CSC1c1cccc(C(=O)NCCCCc2cccs2)c1 (stereo unspecified)
[1]
  IC50: 46 nM

## CC1SC(c2cccc(C(=O)NCCCCc3ccc(Cl)cc3)c2)N(c2ccc(C3CC3)cc2)C1=O (stereo unspecified)
[1]
  IC50: > 1000 nM

## CCC1(c2ccc(N3C(=O)CSC3c3cccc(C(=O)NCCCCn4cccn4)c3)cc2)CCC(=O)NC1=O (stereo unspecified)
[1]
  IC50: > 1000 nM

## COc1ccc(F)cc1N1C(=O)CSC1c1cccc(C(=O)NCCCCn2cccn2)c1 (stereo unspecified)
[8]
  intrinsic clearance (CLint): 421 mL/min/g
[9]
  solubility kinetic: 50 µM (≈ 23.4 µg/mL)
[1]
  IC50: 97.3 nM
[10]
  intrinsic clearance (CLint): 1312 mL/min/g
[11]
  intrinsic clearance (CLint): 1472 mL/min/g
[12]
  solubility kinetic: 50 µM (≈ 23.4 µg/mL)

## COc1ccccc1N1C(=O)CSC1c1cccc(C(=O)NCCCCn2ccc3ccccc32)c1 (stereo unspecified)
[1]
  IC50: 286 nM

## CC1SC(c2cccc(C(=O)NCCCCc3ccccc3)c2)N(c2ccc(C3CC3)cc2)C1=O (stereo unspecified)
[8]
  intrinsic clearance (CLint): 2013 mL/min/g
[9]
  solubility kinetic: 10 µM (≈ 4.85 µg/mL)
[1]
  IC50: 191 nM
[10]
  intrinsic clearance (CLint): 3212 mL/min/g
[11]
  intrinsic clearance (CLint): 3129 mL/min/g
[12]
  solubility kinetic: 2 µM (≈ 0.969 µg/mL)

## CC1SC(c2cccc(C(=O)NCCCCc3ccc(Cl)cc3)c2)N(c2cccc(C3CC3)c2)C1=O (stereo unspecified)
[1]
  IC50: 932 nM

## O=C(NCCCc1ccccc1)c1cccc(C2SCC(=O)N2c2ccc(C3CC3)cc2)c1 (stereo unspecified)
[1]
  IC50: > 1000 nM

## COc1ccccc1N1C(=O)CSC1c1cccc(C(=O)NCCCCN2C(=O)C=CC2=O)c1 (stereo unspecified)
[1]
  IC50: > 1000 nM

## O=C(NCCCCc1ccccc1)c1cccc(C2SCC(=O)N2c2ccc(N3CCOCC3)cc2)c1 (stereo unspecified)
[1]
  IC50: > 1000 nM

## COc1ccccc1N1C(=O)CSC1c1cc(C(=O)NCCCCc2ccccc2)cc(C2CC2)c1 (stereo unspecified)
[1]
  IC50: 23.5 nM

## O=C(NCCCCc1ccccc1)c1cccc(C2SCC(=O)N2c2ccccn2)c1 (stereo unspecified)
[8]
  intrinsic clearance (CLint): 412 mL/min/g
[9]
  solubility kinetic: 20 µM (≈ 8.63 µg/mL)
[1]
  IC50: 19.7 nM
[10]
  intrinsic clearance (CLint): 644 mL/min/g
[11]
  intrinsic clearance (CLint): 1482 mL/min/g
[12]
  solubility kinetic: 20 µM (≈ 8.63 µg/mL)

## COc1ccccc1N1C(=O)CSC1c1cccc(C(=O)NCCCCn2cncn2)c1 (stereo unspecified)
[1]
  IC50: > 1000 nM

## O=C(NCCCCc1ccccc1)c1cccc(C2SCC(=O)N2c2cccc(C3CC3)c2)c1 (stereo unspecified)
[8]
  intrinsic clearance (CLint): 2069 mL/min/g
[9]
  solubility kinetic: 10 µM (≈ 4.71 µg/mL)
[1]
  IC50: 299 nM
[10]
  intrinsic clearance (CLint): 2943 mL/min/g
[11]
  intrinsic clearance (CLint): 3543 mL/min/g
[12]
  solubility kinetic: 10 µM (≈ 4.71 µg/mL)

## O=C(NCCCCc1ccccc1)c1cccc(C2SCC(=O)N2c2nccs2)c1 (stereo unspecified)
[1]
  IC50: > 1000 nM

## O=C(NCCCCc1ccccc1)c1cccc(C2SCC(=O)N2c2cnccn2)c1 (stereo unspecified)
[1]
  IC50: > 1000 nM

## O=C(NCCCCn1cccn1)c1cccc(C2SCC(=O)N2c2ccncc2)c1 (stereo unspecified)
[1]
  IC50: > 1000 nM

## COc1ccccc1N1C(=O)CSC1c1cccc(C(=O)NCCCCn2cccn2)c1 (stereo unspecified)
[1]
  IC50: 91.7 nM

## COc1ccccc1N1C(=O)CSC1c1cc(C)cc(C(=O)NCCCCc2ccccc2)c1 (stereo unspecified)
[1]
  IC50: 16.2 nM

## CC1SC(c2cccc(C(=O)NCCCCc3ccccc3)c2)N(c2cccc(C3CC3)c2)C1=O (stereo unspecified)
[1]
  IC50: 295 nM

## O=C(NCCCCc1ccccc1)c1cccc(C2SCC(=O)N2c2ccc(-c3ccccc3)cc2)c1 (stereo unspecified)
[1]
  IC50: > 1000 nM

## O=C(NCCCCn1cccn1)c1cccc(C2SCC(=O)N2c2cc(Cl)ccn2)c1 (stereo unspecified)
[1]
  IC50: 36.4 nM

## C#Cc1cccc(N2C(=O)CSC2c2cccc(C(=O)NCCCCc3ccccc3)c2)c1 (stereo unspecified)
[8]
  intrinsic clearance (CLint): 751 mL/min/g
[9]
  solubility kinetic: 10 µM (≈ 4.55 µg/mL)
[1]
  IC50: 149 nM
[10]
  intrinsic clearance (CLint): 1903 mL/min/g
[11]
  intrinsic clearance (CLint): 1818 mL/min/g
[12]
  solubility kinetic: 10 µM (≈ 4.55 µg/mL)

## O=C(NCCCCn1cccn1)c1cccc(C2SCC(=O)N2c2ccccn2)c1 (stereo unspecified)
[8]
  intrinsic clearance (CLint): 82.1 mL/min/g
[9]
  solubility kinetic: 50 µM (≈ 21.1 µg/mL)
[1]
  IC50: 60.3 nM
[10]
  intrinsic clearance (CLint): 304 mL/min/g
[11]
  intrinsic clearance (CLint): 506 mL/min/g
[12]
  solubility kinetic: 50 µM (≈ 21.1 µg/mL)

## O=C(NCCc1ccccc1)c1cccc(C2SCC(=O)N2c2ccc(C3CC3)cc2)c1 (stereo unspecified)
[1]
  IC50: > 1000 nM

## COc1ccccc1N1C(=O)CSC1c1cc(F)cc(C(=O)NCCCCc2ccccc2)c1 (stereo unspecified)
[8]
  intrinsic clearance (CLint): 2076 mL/min/g
[9]
  solubility kinetic: 10 µM (≈ 4.79 µg/mL)
[1]
  IC50: 40.9 nM
[10]
  intrinsic clearance (CLint): 1434 mL/min/g
[11]
  intrinsic clearance (CLint): 3259 mL/min/g
[12]
  solubility kinetic: 10 µM (≈ 4.79 µg/mL)

## O=C(NCCCCn1cccn1)c1cccc(C2SCC(=O)N2c2cc(F)ccn2)c1 (stereo unspecified)
[8]
  intrinsic clearance (CLint): 116.4 mL/min/g
[9]
  solubility kinetic: 50 µM (≈ 22 µg/mL)
[1]
  IC50: 33.2 nM
[10]
  intrinsic clearance (CLint): 397 mL/min/g
[11]
  intrinsic clearance (CLint): 1198 mL/min/g
[12]
  solubility kinetic: 50 µM (≈ 22 µg/mL)

## O=C(NCCCCc1ccccc1)c1cc(F)cc(C2SCC(=O)N2c2ccccn2)c1 (stereo unspecified)
[1]
  IC50: 14.2 nM

## COc1ccccc1N1C(=O)CSC1c1cccc(C(=O)NCCCCN2CCN(C(=O)OC(C)(C)C)CC2)c1 (stereo unspecified)
[1]
  IC50: > 1000 nM

## C#Cc1cc(C(=O)NCCCCc2ccccc2)cc(C2SCC(=O)N2c2ccccc2OC)c1 (stereo unspecified)
[8]
  intrinsic clearance (CLint): 1727 mL/min/g
[9]
  solubility kinetic: 10 µM (≈ 4.85 µg/mL)
[1]
  IC50: 40.8 nM
[10]
  intrinsic clearance (CLint): 2490 mL/min/g
[11]
  intrinsic clearance (CLint): 2204 mL/min/g
[12]
  solubility kinetic: 10 µM (≈ 4.85 µg/mL)
